As a reminder, the inhibition is the drop in the measured response relative to a control, in per cent. Broadly, the EC50 is the concentration needed to bring the measured effect to its halfway point. Lower therefore signals a more potent agent. The IC50 is the point on the concentration scale where inhibition reaches its midpoint. As a reminder, the CC50 is the concentration that lowers cell viability or growth by half.

These results are taken from ChEMBL document CHEMBL6074633, “Assessing the inhibitory effects of some secondary amines, thioureas and 1,3-dimethyluracil conjugates of (-)-cytisine and thermopsine on the RNA-dependent RNA polymerase of SARS-CoV-1 and SARS-CoV-2” (Bioorg Med Chem Lett, 2024).

The source made the active and inactive calls. The rule behind the calls is not given here.

Data set [1] addresses Replicase polyprotein 1ab (Severe acute respiratory syndrome coronavirus 2) (UniProt P0DTD1). Put plainly: Inhibition of SARS CoV-2 RdRp at 10 uM incubated for 2 hrs by fluorescence based assay relative to control.
The nature of another data set: in vitro. As to conditions: human, Calu-3 cells.
The subject of data set [2] is SARS-CoV-2. It counts as functional, organism-based. The settings on record: Severe acute respiratory syndrome coronavirus 2; Calu-3; dose <= 1.0 µM, time 120.0 hrs.
In data set [3] the test system is SARS-CoV-2. It counts as functional, organism-based.
Data set [4] concerns SARS-CoV. It counts as functional, organism-based. As to conditions: Severe acute respiratory syndrome-related coronavirus.
The target in data set [5] is Replicase polyprotein 1ab (Severe acute respiratory syndrome coronavirus 2, UniProt P0DTD1). Put plainly: (§1) Inhibition of SARS CoV-2 RdRp incubated for 2 hrs by fluorescence based assay.
The target of data set [6] is Replicase polyprotein 1ab (Severe acute respiratory syndrome coronavirus 2) (UniProt P0DTD1). The data set is described as §1.
For data set [7], the system named is SARS-CoV. It counts as functional, organism-based. The settings on record: Severe acute respiratory syndrome-related coronavirus; Calu-3; dose <= 1.0 µM, time 120.0 hrs.
For data set [8], the system named is SARS-CoV. It counts as functional, organism-based. The settings on record: Severe acute respiratory syndrome-related coronavirus; Calu-3; dose <= 1.0 µM, time 96.0 hrs.
The subject of data set [9] is SARS-CoV-2. It counts as functional, organism-based. The settings on record: Severe acute respiratory syndrome coronavirus 2; Calu-3; dose <= 1.0 µM, time 96.0 hrs.
A short description of data set [10]: Cytotoxicity against human Calu-3 cells assessed as cell viability incubated for 96 hrs by MTT assay. It counts as toxicity, cell-based. Background: Tetrazolium assays rely on reduction of a dye to a coloured formazan, in cell work by metabolically active cells.
For data set [11], the system named is SARS-CoV-2. Briefly: Antiviral activity against SARS CoV-2 replicon-based SRIP. It counts as functional, organism-based. As to conditions: Severe acute respiratory syndrome coronavirus 2. Background: In antiviral work, replicon cells carry a viral genome segment that copies itself.

Regarding `CN1C[C@@H]2C[C@H](C1)c1ccc(NC/C=C/c3ccccc3)c(=O)n1C2`, the inhibition in data set [1] was below 38%.
`O=c1ccc(Cl)c2n1C[C@H]1C[C@@H]2CN(C(=S)Nc2ccccc2)C1` gave an inhibition in data set [1] below 38%.
For `Cn1cc(CNc2ccc3n(c2=O)C[C@H]2C[C@@H]3CN3CCCC[C@@H]23)c(=O)n(C)c1=O`, in data set [1], the inhibition is below 38%.
In turn, `COC(=O)CN1C[C@@H]2C[C@H](C1)c1ccc(NCc3cn(C)c(=O)n(C)c3=O)c(=O)n1C2` returned an inhibition in data set [1] below 38%.
In the case of `Cn1cc(CNc2ccc3n(c2=O)C[C@H]2C[C@@H]3CN(Cc3ccccc3)C2)c(=O)n(C)c1=O`, the selectivity ratio in the data set “in vitro” is above 68. The result with SARS-CoV-2 [2], in the data set with SARS-CoV [7], with SARS-CoV [8] and in the data set on SARS-CoV-2 [9] was Active. Also, the EC50 with SARS-CoV-2 [3] (Severe acute respiratory syndrome coronavirus 2, Calu-3, 96 h) amounted to 1.47 µM; in the data set on SARS-CoV [4] (Calu-3, 96 h), 0.12 µM. The Activity entry was “Dose-dependent-effect” in the data set on SARS-CoV-2 [3] (Severe acute respiratory syndrome coronavirus 2, Calu-3, dose 0.1-10 µM, time 96.0 hrs) and “Dose-dependent-effect” in the data set on SARS-CoV [4] (Calu-3, dose 0.1-10 µM, time 96.0 hrs). In [5], this compound returned an IC50 of 7.8 µM. The inhibition result in [6] was “Dose-dependent-effect”; in [1], 64%. Moreover, in data set [10], the CC50 at 96 h was above 100 µM.
As to `CCC(CC)COC(=O)[C@H](C)N[P@](=O)(OC[C@H]1O[C@@](C#N)(c2ccc3c(N)ncnn23)[C@H](O)[C@@H]1O)Oc1ccccc1` [REMDESIVIR], the EC50 in the data set on SARS-CoV-2 [11] worked out at 0.17 µM. That is a sub-micromolar value.
In [1], `CN1C[C@@H]2C[C@H](C1)c1ccc(NCc3ccccc3O)c(=O)n1C2` showed an inhibition below 38%.
`C=CCNC(=S)N1C[C@@H]2C[C@H](C1)c1ccc([N+](=O)[O-])c(=O)n1C2` returned an inhibition in [1] below 38%.
On the same count and under the same terms, for `CCOC(=O)CNC(=S)Nc1ccc2n(c1=O)C[C@H]1C[C@@H]2CN(C)C1` the value was below 38%; for `O=c1cccc2n1C[C@H]1C[C@@H]2CN(C(=S)Nc2ccccc2)C1`, below 38%; for `CC(C)NC(=S)Nc1ccc2n(c1=O)C[C@H]1C[C@@H]2CN(C)C1`, below 38%.
The compound `CC(C)C[C@H](NC(=O)OCc1ccccc1)C(=O)N[C@@H](C[C@@H]1CCNC1=O)C(O)S(=O)(=O)O` (some centres undefined) registered an EC50 with SARS-CoV-2 [11] of 0.17 µM. In other words, the sub-micromolar range.
